# Target: T1, GLP-1R (Homo sapiens, UniProt P43220)
# Test: GLP-1R Activation - cAMP Assay 1
# Assay type: cell-based
# Conditions: cAMP increase in CHO cells stably expressing GLP-1R; 30 minutes incubation; 10 point dose response
# Protocol: GLP-1R Activation—cAMP Assay 1
# GLP-1R activation by a compound of the present disclosure was quantified by measuring cAMP increase in CHO cells stably expressing GLP-1R (MultiSpan product #C1267-1a). The cells were harvested and plated in growth medium (DMEM/F-12 (Corning product #10-090-CV) supplemented with 10% FBS (HyClone product #SH30071-03), penicillin/streptomycin (Corning product #30-002CI) and 10 µg/ml puromycin (Gibco product #A11138-03)) at 1,000 cells/well in a 384-well plate (Greiner product #781080). The cells were then incubated overnight at 37° C., 5% CO2. The next day, the medium was removed and the cells were washed with DPBS (Corning product #21-031-CM) before adding the assay medium (HBSS, Corning product #21-023-CV) with 20 mM Hepes (Gibco product #15630-080) and 0.1% BSA (Rockland Immunochemicals product #BSA-1000)). Following the medium change, the cells were incubated for 1 hour at 37° C., 5% CO2. The tested GLP-1 compound was added to the cells in a 10 point dose response followed by a 30 minutes incubation at 37° C., 5% CO2. cAMP concentration increase was then detected using Cisbio's cAMP Gs Dynamic Kit (product #62AM4PEC) according to the manufacturer's protocol. The response was plotted against the log of the agonist concentration and fitted to a sigmoidal equation to determine the EC50.
# T1 sequence (P43220 24-463): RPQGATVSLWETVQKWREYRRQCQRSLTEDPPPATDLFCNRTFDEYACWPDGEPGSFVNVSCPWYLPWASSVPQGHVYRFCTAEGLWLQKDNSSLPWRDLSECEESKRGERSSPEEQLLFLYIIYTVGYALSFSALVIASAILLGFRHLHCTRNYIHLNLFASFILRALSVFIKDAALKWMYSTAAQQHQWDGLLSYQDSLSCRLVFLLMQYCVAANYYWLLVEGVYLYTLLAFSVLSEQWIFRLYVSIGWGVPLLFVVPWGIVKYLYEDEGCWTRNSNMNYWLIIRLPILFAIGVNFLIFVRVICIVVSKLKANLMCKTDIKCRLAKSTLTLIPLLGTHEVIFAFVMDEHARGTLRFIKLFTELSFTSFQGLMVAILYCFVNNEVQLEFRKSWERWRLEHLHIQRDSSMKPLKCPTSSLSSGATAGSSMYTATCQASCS
row,Compound,EC50 [nM]
1,"COCCn1c(CN2CCC(c3cccc(OCc4ccc(Cl)c5occc45)n3)CC2)nc2ccc(C(=O)O)cc21 [Example 31, 2-((4-(6-((7-chlorobenzofuran-4-yl)methoxy)pyridin-2-yl)piperidin-1-yl)methyl)-1-(2-methoxyethyl)-1H-benzo[d]imidazole-6-carboxylic acid]",29
2,"COCCn1c(CN2CCC(c3cccc(OCc4ccc(Cl)c5ccccc45)n3)CC2)nc2ccc(C(=O)O)cc21 [Example 4, 2-((4-(6-((4-chloronaphthalen-1-yl)methoxy)pyridin-2-yl)piperidin-1-yl)methyl)-1-(2-methoxyethyl)-1H-benzo[d]imidazole-6-carboxylic acid]",39.9
3,"COCCn1c(CN2CCC(c3cccc(OCc4ccc5nonc5c4)n3)CC2)nc2ccc(C(=O)O)cc21 [Example 27, 2-((4-(6-(benzo[c][1,2,5]oxadiazol-5-ylmethoxy)pyridin-2-yl)piperidin-1-yl)methyl)-1-(2-methoxyethyl)-1H-benzo[d]imidazole-6-carboxylic acid]",66.8
4,"COCCn1c(CN2CCC(c3cccc(OCc4cccc5[nH]cnc45)n3)CC2)nc2ccc(C(=O)O)cc21 [Example 33, 2-((4-(6-((1H-benzo[d]imidazol-4-yl)methoxy)pyridin-2-yl)piperidin-1-yl)methyl)-1-(2-methoxyethyl)-1H-benzo[d]imidazole-6-carboxylic acid]",> 10000
5,"COCCn1c(CN2CCC(c3cccc(OCc4ccc(-c5ccccc5)cc4)n3)CC2)nc2ccc(C(=O)O)cc21 [Example 12, 2-((4-(6-([1,1′-biphenyl]-4-ylmethoxy)pyridin-2-yl)piperidin-1-yl)methyl)-1-(2-methoxyethyl)-1H-benzo[d]imidazole-6-carboxylic acid]",1070

# The next lines start with the values.
row,EC50 [nM],Compound
1,11.3,"COCCn1c(CN2CCC(c3cccc(OCc4ccc(C#N)c5ccccc45)n3)CC2)nc2ccc(C(=O)O)cc21 [Example 25, 2-((4-(6-((4-cyanonaphthalen-1-yl)methoxy)pyridin-2-yl)piperidin-1-yl)methyl)-1-(2-methoxyethyl)-1H-benzo[d]imidazole-6-carboxylic acid]"
2,58.3,"COCCn1c(CN2CCC(c3cccc(OCc4ccc(C5CC5)cc4)n3)CC2)nc2ccc(C(=O)O)cc21 [Example 38, 2-((4-(6-((4-cyclopropylbenzyl)oxy)pyridin-2-yl)piperidin-1-yl)methyl)-1-(2-methoxyethyl)-1H-benzo[d]imidazole-6-carboxylic acid]"
3,297,"COCCn1c(CN2CCC(c3cccc(OCc4ccc(COC)cc4)n3)CC2)nc2ccc(C(=O)O)cc21 [Example 30, 1-(2-methoxyethyl)-2-((4-(6-((4-(methoxymethyl)benzyl)oxy)pyridin-2-yl)piperidin-1-yl)methyl)-1H-benzo[d]imidazole-6-carboxylic acid]"
4,1440,"COCCn1c(CN2CCC(c3cccc(OCc4ccc(C(C)(C)O)cc4)n3)CC2)nc2ccc(C(=O)O)cc21 [Example 29, 2-((4-(6-((4-(2-hydroxypropan-2-yl)benzyl)oxy)pyridin-2-yl)piperidin-1-yl)methyl)-1-(2-methoxyethyl)-1H-benzo[d]imidazole-6-carboxylic acid]"
5,60.8,"COCCn1c(CN2CCC(c3cccc(OCc4ccc5ncsc5c4)n3)CC2)nc2ccc(C(=O)O)cc21 [Example 28, 2-((4-(6-(benzo[d]thiazol-6-ylmethoxy)pyridin-2-yl)piperidin-1-yl)methyl)-1-(2-methoxyethyl)-1H-benzo[d]imidazole-6-carboxylic acid]"
6,50.6,"COCCn1c(CN2CCC(c3cccc(OCc4cccc5ccccc45)n3)CC2)nc2ccc(C(=O)O)cc21 [Example 5, 1-(2-methoxyethyl)-2-((4-(6-(naphthalen-1-ylmethoxy)pyridin-2-yl)piperidin-1-yl)methyl)-1H-benzo[d]imidazole-6-carboxylic acid]"

# Target: T1, GLP-1R
# Test: GLP-1R Activation - cAMP Assay 2
# Assay type: cell-based
# Conditions: cAMP increase in CHO cells stably expressing GLP-1R; pre-spotted agonists; assay buffer or 100% Human Plasma (not given); 30 minutes
# Protocol: GLP-1R Activation—cAMP Assay 2
# GLP-1R activation by small molecule agonists is quantified by measuring cAMP increase in CHO cells stably expressing GLP-1R (MultiSpan product #C1267-1a). 50 nL of agonists are pre-spotted in a 10 point dose response onto 384-well plate (Corning product #CL3826) using the Labcyte Echo System. The cells are harvested and plated in assay buffer (HBSS (Corning product #21-023-CV) with 20 mM Hepes (Gibco product #15630-080) and 0.1% BSA (Rockland Immunochemicals product #BSA-1000)) or 100% Human Plasma (Innovative Research product #50-643-396) at 1,000 cells/well, 10 μL/well, onto the pre-spotted plates. The cells are then incubated for 30 minutes at 37° C., 5% CO2. cAMP concentration increase is then detected using Cisbio's cAMP Gs Dynamic Kit (product #62AM4PEC) according to the manufacturer's protocol. The response is plotted against the log of the agonist concentration and fitted to a sigmoidal equation to determine the EC50.
row,Compound,EC50 [nM]
1,"O=C(O)c1ccc2nc(CN3CCC(c4cccc(OCc5ccc(-n6cc(C7CC7)nn6)cc5F)n4)CC3)n(C[C@@H]3CCO3)c2c1 [Example 40, 2-[[4-[6-[[4-(4-cyclopropyltriazol-1-yl)-2-fluoro-phenyl]methoxy]-2-pyridyl]-1-piperidyl]methyl]-3-[[(2S)-oxetan-2-yl]methyl]benzimidazole-5-carboxylic acid]",1.3
2,"O=C(O)c1ccc2nc(CN3CCC(c4cccc(OCc5ccc(-c6cnn(C(F)F)c6)cc5F)n4)CC3)n(C[C@@H]3CCO3)c2c1 [Example 19, (S)-2-((4-(6-((4-(1-(difluoromethyl)-1H-pyrazol-4-yl)-2-fluorobenzyl)oxy)pyridin-2-yl)piperidin-1-yl)methyl)-1-(oxetan-2-ylmethyl)-1H-benzo[d]imidazole-6-carboxylic acid]",0.2
3,"COCCn1c(CN2CCC(c3cccc(OCc4ccc(-c5cnn(C)c5)cc4F)n3)CC2)nc2ccc(C(=O)O)cc21 [Example 21, 2-((4-(6-((2-fluoro-4-(1-methyl-1H-pyrazol-4-yl)benzyl)oxy)pyridin-2-yl)piperidin-1-yl)methyl)-1-(2-methoxyethyl)-1H-benzo[d]imidazole-6-carboxylic acid]",7.2
4,"O=C(O)c1ccc2nc(CN3CCC(c4cccc(OCc5ccc(-c6cn(C7COC7)nn6)cc5F)n4)CC3)n(C[C@@H]3CCO3)c2c1 [Example 24, (S)-2-((4-(6-((2-fluoro-4-(1-(oxetan-3-yl)-1H-1,2,3-triazol-4-yl)benzyl)oxy)pyridin-2-yl)piperidin-1-yl)methyl)-1-(oxetan-2-ylmethyl)-1H-benzo[d]imidazole-6-carboxylic acid]",1.7
5,"Cn1cc(C#Cc2ccc(COc3cccc(C4CCN(Cc5nc6ccc(C(=O)O)cc6n5C[C@@H]5CCO5)CC4)n3)c(F)c2)cn1 [Example 22, 2-[[4-[6-[[2-fluoro-4-[2-(1-methylpyrazol-4-yl)ethynyl]phenyl]methoxy]-2-pyridyl]-1-piperidyl]methyl]-3-[[(2S)-oxetan-2-yl]methyl]benzimidazole-5-carboxylic acid]",3.1
6,"O=C(O)c1ccc2nc(CN3CCC(c4cccc(OCc5ccc(-n6ccnn6)cc5F)n4)CC3)n(C[C@@H]3CCO3)c2c1 [Example 41, (S)-2-((4-(6-((2-fluoro-4-(1H-1,2,3-triazol-1-yl)benzyl)oxy)pyridin-2-yl)piperidin-1-yl)methyl)-1-(oxetan-2-ylmethyl)-1H-benzo[d]imidazole-6-carboxylic acid]",0.3

# Further lines, results first:
row,EC50 [nM],Compound
1,11.8,"COCCn1c(CN2CCC(c3cccc(OCc4ccc(-c5cnn(C(F)F)c5)cc4F)n3)CC2)nc2ccc(C(=O)O)cc21 [Example 16, 2-((4-(6-((4-(1-(difluoromethyl)-1H-pyrazol-4-yl)-2-fluorobenzyl)oxy)pyridin-2-yl)piperidin-1-yl)methyl)-1-(2-methoxyethyl)-1H-benzo[d]imidazole-6-carboxylic acid]"
2,0.5,"Cn1cc(-c2ccc(COc3cccc(C4CCN(Cc5nc6ccc(C(=O)O)cc6n5C[C@@H]5CCO5)CC4)n3)c(F)c2)cn1 [Example 15, 2-[[4-[6-[[2-fluoro-4-(1-methylpyrazol-4-yl)phenyl]methoxy]-2-pyridyl]-1-piperidyl]methyl]-3-[[(2S)-oxetan-2-yl]methyl]benzimidazole-5-carboxylic acid]"
3,24.6,"COCCn1c(CN2CCC(c3cccc(OCc4ccc(-c5cn(C)nn5)cc4F)n3)CC2)nc2ccc(C(=O)O)cc21 [Example 17, 2-((4-(6-((2-fluoro-4-(1-methyl-1H-1,2,3-triazol-4-yl)benzyl)oxy)pyridin-2-yl)piperidin-1-yl)methyl)-1-(2-methoxyethyl)-1H-benzo[d]imidazole-6-carboxylic acid]"
4,1.7,"O=C(O)c1ccc2nc(CN3CCC(c4cccc(OCc5ccc(-c6cn(C7CC7)nn6)cc5F)n4)CC3)n(C[C@@H]3CCO3)c2c1 [Example 23, (S)-2-((4-(6-((4-(1-cyclopropyl-1H-1,2,3-triazol-4-yl)-2-fluorobenzyl)oxy)pyridin-2-yl)piperidin-1-yl)methyl)-1-(oxetan-2-ylmethyl)-1H-benzo[d]imidazole-6-carboxylic acid]"
5,1.5,"Cn1cc(-c2ccc(COc3cccc(C4CCN(Cc5nc6ccc(C(=O)O)cc6n5C[C@@H]5CCO5)CC4)n3)c(F)c2)nn1 [Example 18, (S)-2-((4-(6-((2-fluoro-4-(1-methyl-1H-1,2,3-triazol-4-yl)benzyl)oxy)pyridin-2-yl)piperidin-1-yl)methyl)-1-(oxetan-2-ylmethyl)-1H-benzo[d]imidazole-6-carboxylic acid]"

# Reference: US12180197B2, “GLP-1R modulating compounds” (Gilead Sciences, Inc., priority 2021, dated 2024)
